From paper PMC7313430, “Heme-Dependent ER Stress Apoptosis: A Mechanism for the Selective Toxicity of the Dihydroartemisinin, NSC735847, in Colorectal Cancer Cells” (Frontiers in Oncology, 2020)

Legend:
FHC cells [1] = experiment: TUNEL assay in FHC; assay type: cell-based, human; conditions: 5 or 10 μM, 16 h
Experimental: (§1) HT29, HCT116, and FHC cells were cultured in chamber slides and treated with 5 μM NSC735847, 10 μM NSC735847, or vehicle (0.1% DMSO). The cells were then washed with PBS and fixed in 4% paraformaldehyde before detection of double stranded DNA breaks that are characteristic of apoptosis. Terminal deoxynucleotidyl transferase dUTP nick end labeling (TUNEL) assays were performed as described by the manufacturer (in situ Cell Death Detection Kit; Roche; Indianapolis, IN). Briefly, fixed cells were incubated in permeabilization solution (0.1% Triton X-100 in 0.1% sodium citrate) for 2 min on ice. The slides were rinsed twice with PBS, 50 μL TUNEL reaction mixture was added, and then the samples were incubated for 1 h at 37°C in the dark. The slides were overlayed with antifade mounting medium containing DAPI and then visualized using a Zeiss LSM 700 confocal microscope system (Carl Zeiss Microscopy, LLC, White Plains, NY).

HCT116 cells [2] = experiment: MTS cell viability assay, colon cancer cells HCT116; assay type: cell-based, human
Experimental: (§2) The human colon cancer cell lines HT29 and HCT116 were cultured in McCoy's 5A medium (Sigma Aldrich, St. Louis, MO) containing 10% heat-inactivated fetal bovine serum (FBS), penicillin (100 units/ml), and streptomycin (100 μg/ml). The non-tumorigenic colon cell line, FHC, was cultured in DMEM: F12 (1:1) medium supplemented with 10% heat inactivated FBS, 25 mM HEPES (Thermo Fisher Scientific Inc., IL), 10 ng/ml cholera toxin (Sigma Aldrich, St. Louis, MO), 0.005 mg/ml insulin (Thermo Fisher Scientific Inc., IL), 0.005 mg/ml, transferrin (Sigma Aldrich, St. Louis, MO), 100 ng/ml hydrocortisone (Sigma Aldrich, St. Louis, MO), 20 ng/mL human recombinant epidermal growth factor (Thermo Fisher Scientific Inc., IL), 100 units/ml penicillin, and 100 μg/ml streptomycin.
(§3) Cells were cultured in 96-well-plates for 48 h before treatment. Serum-free media containing different agents was added to the cells at the concentration and time period described in the figure legend. MTS reagent (Promega, Madison, WI) was then added to each well and the absorbance was measured at 495 nm as directed by the manufacturer. In the presence of MTS reagent, the absorbance reading is proportional to the number of viable cells. The half-maximal inhibitory concentration (IC50) of the tested compounds is the concentration that reduces the viability of cells by 50%. IC50 was calculated after 24 h of treatment ([30], [31]) as described previously ([32]–[34]) from dose-response curves (log drug concentration vs. percentage viability from untreated cells) generated by non-linear regression analysis with GraphPad Prism 5 software (GraphPad Software, San Diego, California).

[3] = system: reactive oxygen species in HT29 cells; experiment: Oxidative stress measurement with CM-H2DCFDA (DCF); assay type: cell-based, human; conditions: HT29, 10 μM, 8 h
Experimental: Oxidative stress was measured in cultured cells by using the probe, chloromethyl-2′,7′ dichlorodihydrofluorescein diacetate (CM-H2DCFDA or DCF) purchased from Life Technologies (Grand Island, NY). […] The cells were loaded with 5 μM DCF in phenol red-free, serum-free medium for 30 min and then the cells were treated with the appropriate drug for the indicated period of time. The cells were then trypsinized and resuspended in serum-containing, phenol red-free medium. The fluorescence of DCF was measured using an Accuri C6 flow cytometer (BD Accuri Cytometers, Ann Arbor, MI) at an excitation wavelength of 488 and emission of 533 ± 30 nm.

[4] = system: caspase 3/7 activity in FHC cells; experiment: Caspase-Glo 3/7 activity assay in FHC; assay type: cell-based, human; conditions: 16 h, 1.25-10 μM
Experimental: (§4) The cells were plated in white-walled 96-well-plates and then they were cultured at 37°C for 48 h. Serum-free culture medium containing the appropriate concentration of different agents was added to the cells for the indicated period of time. Caspase-Glo 3/7 reagent (Promega, Madison, WI) was added to each well and luminescence was detected as directed by the manufacturer. The Caspase-Glo 3/7 kit measures the activity of the executioner caspases 3 and 7 using the luminogenic substrate (Z-DEVD-aminoluciferin) as substrate.

[5] = system: PERK, eIF2a, CHOP10, PARP, caspase 3 in FHC cells; experiment: Western blot of ER stress and apoptosis proteins in FHC; assay type: cell-based, human; conditions: 10 μM, 1-16 h
Experimental: Western blot analysis was conducted as described previously ([35]). Briefly, the cells were cultured in 100 mm dishes for 48 h before treatment. The cells were then treated as described in the figure legends. For vehicle-treated samples, DMSO was added to serum-free culture medium at a maximum concentration of 0.1% (v/v). After experimentation, the cells were washed twice with phosphate buffer saline (PBS) and then 100 μl of Triton lysis buffer [25 mM HEPES, 100 mM NaCl, 1 mM EDTA, 10% (v/v) glycerol, 1% (v/v) Triton X-100], containing protease and […] inhibitors, was added to the cells. Protein concentrations were determined by using BCA reagents (Thermo Fisher Scientific Inc., IL). Equal concentrations of each sample were loaded onto SDS–PAGE gels and protein bands transferred to nitrocellulose membranes using semi-dry transfer cells (TRANS-BLOTSD; Bio-Rad Laboratories, Hercules, CA). The membranes were incubated for 2 h at room temperature in Odyssey blocking buffer (LI-COR Biosciences, Lincoln, NE). Membranes were then incubated overnight at 4C with primary antibody followed by 1 h of incubation at room temperature with secondary antibody. […] Protein bands were visualized using Odyssey® CLx digital fluorescence imaging system (LI-COR, Lincoln, Nebraska). Band intensities were quantified by using ImageJ software ([36]).

[6] = system: caspase 3/7 activity in HCT-116 cells; experiment: Caspase-Glo 3/7 activity assay in HCT116; assay type: cell-based, human; conditions: 16 h, 1.25-10 μM
Experimental: as §4

[7] = system: caspase 3/7 activity in HT29 cells; experiment: Caspase-Glo 3/7 activity assay in HT29; assay type: cell-based, human; conditions: 16 h, 1.25-10 μM
Experimental: as §4

FHC cells [8] = experiment: MTS cell viability assay, non-tumorigenic colon cells; assay type: cell-based; conditions: Homo sapiens, 24 h treatment
Experimental: as §2, §3

HT29 cells = experiment: TUNEL assay in HT29; assay type: cell-based, human; conditions: 5 or 10 μM, 16 h
Experimental: as §1

[9] = system: P-PERK, P-eIF2α, CHOP10, PARP, caspase-3, ferritin in HT29 cells; experiment: Western blot of ER stress and apoptosis proteins in HT29; assay type: cell-based, human
Experimental: Western blot analysis was conducted as described previously ([35]). Briefly, the cells were cultured in 100 mm dishes for 48 h before treatment. The cells were then treated as described in the figure legends. For vehicle-treated samples, DMSO was added to serum-free culture medium at a maximum concentration of 0.1% (v/v). After experimentation, the cells were washed twice with phosphate buffer saline (PBS) and then 100 μl of Triton lysis buffer [25 mM HEPES, 100 mM NaCl, 1 mM EDTA, 10% (v/v) glycerol, 1% (v/v) Triton X-100], containing protease and […] inhibitors, was added to the cells. Protein concentrations were determined by using BCA reagents (Thermo Fisher Scientific Inc., IL). Equal concentrations of each sample were loaded onto SDS–PAGE gels and protein bands transferred to nitrocellulose membranes using semi-dry transfer cells (TRANS-BLOTSD; Bio-Rad Laboratories, Hercules, CA). The membranes were incubated for 2 h at room temperature in Odyssey blocking buffer (LI-COR Biosciences, Lincoln, NE). Membranes were then incubated overnight at 4C with primary antibody followed by 1 h of incubation at room temperature with secondary antibody. All primary antibodies were used at a dilution of 1:1,000 except anti-GAPDH and anti-CHOP10 antibodies which were used at 1:10,000 and 1:500 dilutions, respectively. All secondary antibodies were used at a dilution of 1:15,000. Protein bands were visualized using Odyssey® CLx digital fluorescence imaging system (LI-COR, Lincoln, Nebraska). Band intensities were quantified by using ImageJ software ([36]).

HCT116 cells [10] = experiment: TUNEL assay in HCT116; assay type: cell-based, human; conditions: 5 or 10 μM, 16 h
Experimental: as §1

CC1CCC2C(C)C(OCC(COC3OC4OC5(C)CCC6C(C)CCC(C3C)C46OO5)=NO)OC3OC4(C)CCC1C32OO4 (stereo not shown) [compound (3)]
TUNEL positive cells in FHC (FHC cells [1]): absent
IC50 (HCT116 cells [2]; Homo sapiens, HCT-116, MTS viability, 24 h treatment): 11.8 µM
cell death / survival of HCT116 cells (HCT116 cells [2]; MTS, 24 h, single agents or combinations): induced death in a concentration-dependent manner
intracellular oxidative stress (DCF fluorescence) [3]: increased the intracellular oxidative stress levels
caspase 3/7 activity in FHC [4]: not in FHC cells
activation of PERK, eIF2a, CHOP10, PARP, caspase 3 in FHC [5]: did not increase the activation
caspase 3/7 activity in HCT-116 [6]: significantly increased
caspase 3/7 activity in HT-29 [7]: significantly increased
IC50 (FHC cells [8]): > 25 µM
TUNEL positive cells in HT29 (HT29 cells): increased the quantity of TUNEL positive cells
CHOP10 expression ([9]; HT29, 10 μM, 6 and 8 h): marked increase
cleavage of PARP ([9]; HT29, 10 μM, 8 and 16 h): stimulated the cleavage
cleavage of caspase-3 ([9]; HT29, 10 μM, 8 and 16 h): stimulated the cleavage
phosphorylation of PERK, increase compared to vehicle-treated cells ([9]; HT-29, 10 μM, 1 and 2 h): more than 7 fold
phosphorylation of eIF2α, increase compared to vehicle-treated cells ([9]; HT-29, 10 μM, 1 and 2 h): more than 7 fold
TUNEL positive cells in HCT-116 (HCT116 cells [10]): increased the quantity of TUNEL positive cells
